For data set [1], the target named is T1, CES1 (carboxylesterase 1, CES1A1) (Homo sapiens, UniProt P23141).
T1 construct: CES1 isoform b (CES1b/CES1A1) human recombinant
T1 sequence (P23141 18-567): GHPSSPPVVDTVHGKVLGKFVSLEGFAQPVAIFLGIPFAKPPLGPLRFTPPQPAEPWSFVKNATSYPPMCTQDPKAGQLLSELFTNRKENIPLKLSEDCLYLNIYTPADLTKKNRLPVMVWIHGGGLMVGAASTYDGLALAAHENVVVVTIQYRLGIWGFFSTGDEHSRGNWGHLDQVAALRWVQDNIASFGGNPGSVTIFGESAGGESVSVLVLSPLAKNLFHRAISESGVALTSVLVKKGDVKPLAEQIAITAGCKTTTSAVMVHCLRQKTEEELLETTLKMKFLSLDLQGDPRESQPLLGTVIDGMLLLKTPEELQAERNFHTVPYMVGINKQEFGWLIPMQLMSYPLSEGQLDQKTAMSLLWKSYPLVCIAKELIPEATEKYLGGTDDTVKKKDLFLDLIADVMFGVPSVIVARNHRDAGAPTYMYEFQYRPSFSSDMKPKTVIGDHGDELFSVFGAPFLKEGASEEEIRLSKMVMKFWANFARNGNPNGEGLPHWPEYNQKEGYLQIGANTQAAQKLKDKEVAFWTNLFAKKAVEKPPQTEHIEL
Briefly: product of AMB-FUBINACA hydrolysis by recombinant CES1, HPLC-DAD. The class given is biochemical.

Data set [2] deals with T2, cannabinoid type-1 receptor (CB1) (Homo sapiens, UniProt P21554).
T2 construct: gene CNR1; 3HA-tagged human CB1 in HEK293 cells
T2 sequence (P21554 whole entry): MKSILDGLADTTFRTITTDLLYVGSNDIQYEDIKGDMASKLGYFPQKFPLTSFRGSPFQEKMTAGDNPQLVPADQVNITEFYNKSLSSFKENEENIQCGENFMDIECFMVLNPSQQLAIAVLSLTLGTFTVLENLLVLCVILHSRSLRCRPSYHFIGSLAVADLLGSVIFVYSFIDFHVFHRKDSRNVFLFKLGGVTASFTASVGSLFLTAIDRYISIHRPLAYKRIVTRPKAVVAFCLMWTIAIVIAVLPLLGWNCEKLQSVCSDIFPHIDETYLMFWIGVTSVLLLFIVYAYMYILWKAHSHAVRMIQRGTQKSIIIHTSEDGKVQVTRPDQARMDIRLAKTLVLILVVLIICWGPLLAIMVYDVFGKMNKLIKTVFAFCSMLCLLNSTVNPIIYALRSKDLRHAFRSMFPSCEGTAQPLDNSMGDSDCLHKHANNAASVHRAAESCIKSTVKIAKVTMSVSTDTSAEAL
Put plainly: BRET CAMYEL cAMP inhibition assay (agonism); also weak radioligand displacement ([…] at […]). The class given is cell-based. On the technique in general: BRET reads energy transfer from a luciferase to a nearby fluorophore.

For data set [3], the target named is T1, CES1 (carboxylesterase 1, CES1A1). Put plainly: hydrolysis by recombinant CES1, HPLC-DAD time course (t1/[…] s at […]). It counts as biochemical.
In data set [4] the target is T2, cannabinoid type-1 receptor (CB1). Put plainly: BRET CAMYEL cAMP inhibition assay (agonism) in HEK293 cells stably expressing 3HA-hCB1. It counts as cell-based.
For data set [5], the target named is T3, CES2 (carboxylesterase-2) (Homo sapiens, UniProt O00748).
T3 construct: carboxylesterase-2 (CES2) human recombinant
T3 sequence (O00748 27-559): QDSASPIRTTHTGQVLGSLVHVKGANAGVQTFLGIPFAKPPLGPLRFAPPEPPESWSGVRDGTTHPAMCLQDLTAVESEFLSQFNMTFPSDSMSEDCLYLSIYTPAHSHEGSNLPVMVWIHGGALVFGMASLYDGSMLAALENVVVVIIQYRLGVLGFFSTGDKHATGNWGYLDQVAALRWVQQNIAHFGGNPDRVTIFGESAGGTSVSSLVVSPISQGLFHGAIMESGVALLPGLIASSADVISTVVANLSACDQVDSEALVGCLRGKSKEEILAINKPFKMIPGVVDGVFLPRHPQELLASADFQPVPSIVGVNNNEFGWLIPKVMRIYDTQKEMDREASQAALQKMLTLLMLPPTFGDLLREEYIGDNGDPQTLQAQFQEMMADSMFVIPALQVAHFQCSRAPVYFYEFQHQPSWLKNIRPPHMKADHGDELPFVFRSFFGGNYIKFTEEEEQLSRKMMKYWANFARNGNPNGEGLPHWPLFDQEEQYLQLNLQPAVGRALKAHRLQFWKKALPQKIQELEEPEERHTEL
Put plainly: p-nitrophenol formation by recombinant CES2, absorbance at […] nm. It counts as biochemical.

The target of data set [6] is T1, CES1 (carboxylesterase 1, CES1A1). Briefly: p-nitrophenol formation by recombinant CES1, absorbance at […] nm. The class given is biochemical.
Data set [7] has the same target. Briefly: inhibition of PNPA hydrolysis by recombinant CES1, absorbance at […] nm. The following applies: read-out: % of control velocity at 50 μM. It counts as biochemical.
For data set [8], the target named is T3, CES2 (carboxylesterase-2). Put plainly: inhibition of PNPA hydrolysis by recombinant CES2, absorbance at […] nm. Particulars: read-out: % of control velocity at 50 μM. The class given is biochemical.

For `CC(C)[C@H](NC(=O)c1nn(Cc2ccc(F)cc2)c2ccccc12)C(=O)O` [AMB-FUBINACA acid, methyl (2S)-2-((1-((4-fluorophenyl)methyl]indazole-3-carbonyl)amino)-3-methylbutanoic acid], in data set [1], the “product of AMB-FUBINACA hydrolysis by recombinant CES1, HPLC-DAD” value is given as “No metabolites other than AMB-FUBINACA acid were generated”. Moreover, a half-maximal effect in data set [2] (EC50) was put at 447 nM.

On to `COC(=O)[C@@H](NC(=O)c1nn(Cc2ccc(F)cc2)c2ccccc12)C(C)C` [AMB-FUBINACA, methyl (2S)-2-((1-((4-fluorophenyl)methyl)indazole-3-carbonyl)amino)-3-methylbutanoate], for which the half-life – broadly, the time in which the quantity being followed falls by half – at 3 µM in data set [3] is 2 min. Also, in data set [4], the EC50 (usually the concentration needed to bring the measured effect to its halfway point) was 0.148 nM.

Take `CC(=O)Oc1ccc([N+](=O)[O-])cc1` [p-nitrophenyl acetate]: the “p-nitrophenol formation by recombinant CES2, absorbance at 405 nm” value in data set [5] was 221 nmol/min/mg. Further, the “p-nitrophenol formation by recombinant CES1, absorbance at 405 nm” value in data set [6] came to 296 nmol/min/mg.

`CCCc1nc2c(C)cc(-c3nc4ccccc4n3C)cc2n1Cc1ccc(-c2ccccc2C(=O)O)cc1` [telmisartan]: the values for the remaining activity at 50 µM in data set [7] and in data set [8] were 71% and 58.2%, respectively.

The record behind these values is PMC9849163, “Characterisation of AMB-FUBINACA metabolism and CB1-mediated activity of its acid metabolite” (Forensic Toxicology, 2022).
